IC50 data for four molecules are collected here from ChEMBL document CHEMBL3400031, “Histone H3 peptide based LSD1-selective inhibitors” (Bioorg Med Chem Lett, 2015).

For assay [1], the target named is T1, Amine oxidase [flavin-containing] B (Homo sapiens, UniProt P27338).
T1 sequence (P27338 whole entry): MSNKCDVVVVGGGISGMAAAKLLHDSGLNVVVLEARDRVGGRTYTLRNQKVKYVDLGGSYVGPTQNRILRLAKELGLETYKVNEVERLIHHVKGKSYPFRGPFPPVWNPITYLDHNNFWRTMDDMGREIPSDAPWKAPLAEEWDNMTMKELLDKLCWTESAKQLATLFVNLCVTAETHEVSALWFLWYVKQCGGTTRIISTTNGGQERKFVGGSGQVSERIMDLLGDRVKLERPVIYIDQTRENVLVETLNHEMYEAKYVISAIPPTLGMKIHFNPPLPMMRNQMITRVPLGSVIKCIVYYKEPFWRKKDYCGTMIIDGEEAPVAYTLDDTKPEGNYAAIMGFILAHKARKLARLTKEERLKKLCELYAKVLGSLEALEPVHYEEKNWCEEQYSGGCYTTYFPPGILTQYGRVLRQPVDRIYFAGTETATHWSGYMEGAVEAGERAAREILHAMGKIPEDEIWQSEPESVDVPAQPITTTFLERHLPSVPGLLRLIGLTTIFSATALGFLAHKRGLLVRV
Put plainly: Inhibition of human MAOB using (4S)-4,5-dihydro-2-(6-hydroxybenzothiazolyl)-4-thiazolecarboxylic acid substrate incubated for 60 mins by luciferin detection based chemiluminescence assay.

The target of assay [2] is T2, Amine oxidase [flavin-containing] A (Homo sapiens, UniProt P21397).
T2 sequence (P21397 whole entry): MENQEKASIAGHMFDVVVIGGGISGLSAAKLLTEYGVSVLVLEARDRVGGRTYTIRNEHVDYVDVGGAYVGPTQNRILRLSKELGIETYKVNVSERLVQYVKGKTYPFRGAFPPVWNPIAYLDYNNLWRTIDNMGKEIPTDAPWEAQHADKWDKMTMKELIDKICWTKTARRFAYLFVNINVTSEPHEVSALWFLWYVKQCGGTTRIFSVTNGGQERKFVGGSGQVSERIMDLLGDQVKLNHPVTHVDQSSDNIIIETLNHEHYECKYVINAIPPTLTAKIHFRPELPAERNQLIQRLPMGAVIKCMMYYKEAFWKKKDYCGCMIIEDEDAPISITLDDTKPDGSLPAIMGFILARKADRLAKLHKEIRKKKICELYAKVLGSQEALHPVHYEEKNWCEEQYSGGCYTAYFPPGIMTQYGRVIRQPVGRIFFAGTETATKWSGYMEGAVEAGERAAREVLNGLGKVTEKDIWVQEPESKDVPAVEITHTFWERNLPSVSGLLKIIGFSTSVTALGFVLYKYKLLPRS
Put plainly: Inhibition of human MAOA using (4S)-4,5-dihydro-2-(6-hydroxybenzothiazolyl)-4-thiazolecarboxylic acid substrate incubated for 60 mins by luciferin detection based chemiluminescence assay.

Assay [3] addresses Lysine-specific histone demethylase 1A (Homo sapiens, UniProt O60341). The assay is described as follows: Inhibition of human recombinant LSD1 assessed as effect on H2O2 production incubated for 30 mins using methylated peptide substrate, Amplex red reagent and peroxidase by fluorimetry.

Numbered stars: 1 amine (or outer) side, 2 acyl side, 3 side chain; on linkers, the order of the positions; unused ones are H or OH. Square brackets hold non-standard residues; d marks the D form. Peptide text beside a SMILES is read from it. X1 = O=C([C@H](CCCCNC1CC1c1ccccc1)N[*:1])[*:2] Some results are limits rather than exact numbers.

The term IC50 denotes the concentration at which inhibition is half-maximal. As for `C[C@H](N)C(=O)N[C@@H](CCCNC(=N)N)C(=O)N[C@H](C(=O)N[C@@H](CCCCNC1CC1c1ccccc1)C(=O)N[C@@H](CCC(N)=O)C(=O)O)[C@@H](C)O` (some centres undefined) (H-ART[X1]Q-OH), the IC50 was > 100 µM in assay [1], > 100 µM in assay [2] and > 10 µM in assay [3].
Consider `C[C@H](N)C(=O)N[C@@H](CCCNC(=N)N)C(=O)N[C@H](C(=O)N[C@@H](CCCCNC1CC1c1ccccc1)C(=O)N[C@@H](CCC(N)=O)C(=O)N[C@H](C(=O)N[C@@H](C)C(=O)N[C@@H](CCCNC(=N)N)C(=O)N[C@@H](CCCCN)C(=O)N[C@@H](CO)C(=O)N[C@H](C(=O)NCC(=O)NCC(=O)N[C@@H](CCCCN)C(=O)N[C@@H](C)C(=O)N1CCC[C@H]1C(=O)N[C@@H](CCCNC(=N)N)C(=O)O)[C@@H](C)O)[C@@H](C)O)[C@@H](C)O` (some centres undefined) (H-ART[X1]QTARKSTGGKAPR-OH), for which the IC50 in assay [1] and in assay [2] was > 100 µM each time.
With `C[C@H](N)C(=O)N[C@@H](CCCNC(=N)N)C(=O)N[C@H](C(=O)N[C@@H](CCCCNC1CC1c1ccccc1)C(=O)N[C@@H](CCC(N)=O)C(=O)N[C@H](C(=O)N[C@@H](C)C(=O)N[C@@H](CCCNC(=N)N)C(=O)N[C@@H](CCCCN)C(=O)N[C@@H](CO)C(=O)N[C@H](C(=O)NCC(=O)NCC(=O)O)[C@@H](C)O)[C@@H](C)O)[C@@H](C)O` (some centres undefined), the IC50 in assay [1] and in assay [2] was > 100 µM throughout.
With `C[C@H](N)C(=O)N[C@@H](CCCNC(=N)N)C(=O)N[C@H](C(=O)N[C@@H](CCCCNC1CC1c1ccccc1)C(=O)N[C@@H](CCC(N)=O)C(=O)N[C@H](C(=O)N[C@@H](C)C(=O)N[C@@H](CCCNC(=N)N)C(=O)N[C@@H](CCCCN)C(=O)O)[C@@H](C)O)[C@@H](C)O` (some centres undefined), the IC50 in assay [1] and in assay [2] was > 100 µM in each case.
